# Assay results reported in patent US12600732B2, “Bifunctional compounds for degrading BTK via ubiquitin proteosome pathway” (NURIX THERAPEUTICS, INC., priority 2019, dated 2026).
# Values joined by “and” are separate entries in the source; they are usually repeats but may differ in a detail not shown here. Equal values may be shown once. Read-outs that look alike come from different tables or passages of the source.
# Legend:
# BTK [1] = target: BTK (Homo sapiens, UniProt Q06187); experiment: BTK remaining in TMD8 WT mouse xenograft study; format: in vivo; set-up: from tissue; host or cells: TMD8 xenograft in CB.17 SCID mice; settings: PO, 30 mg/kg, QD, 21 days of dosing
# Excerpt: Efficacy in Mouse Xenograft Models
# (§1) This example examines the activity of various BTK CTMs in relevant disease models, including the WT and C481S TMD8 model, which models B cell malignancies with/without inhibitor-driven BTK mutations at C481.
# TMD8 C481S cells = experiment: Cell viability assay (CellTiter-Glo), TMD8 C481S cells; settings: for EC50: Homo sapiens, TMD8, 72 h; for EMAX (% viable cells): TMD8 C481S cells, treatment time 72 h
# TMD8 tumor cells = experiment: TMD8 xenograft efficacy study (wild-type BTK); format: in vivo, mouse; settings: TMD8 WT, PO, 30 mg/kg, QD, 21 days of dosing
# Experimental: […] Tumor growth inhibition (% TGI) were calculated on the final day of measurement using the equation [1−(T−T0/C−T0)]×100, where T and C represent the mean size of tumors in the treated (T) and control (C) groups, and T0 refers to the tumor size at randomization.
# as §1
# BTK C481S = BTK C481S (Homo sapiens, UniProt Q06187, C481S); experiment: BTK degradation (Total BTK HTRF) in TMD8 cells expressing BTK-C481S; format: cell-based; set-up: endogenous in cells; host or cells: TMD8 BTK-C481S (clone2C3), Cas9 RNP knock-in; settings: TMD8 BTK-C481S (clone2C3) cells, treatment time 4 h
# Experimental: BTK levels were determined using Cisbio Total-BTK HTRF (Homologous Time-Resolved Fluorescence) kit (63ADK064PEG) according to the manufacturer's protocol. Briefly, cells were incubated in 1× supplied lysis buffer for 30 minutes. In an opaque white low volume 96-well plate (Cisbio, 66PL96005), cell lysate was combined with two different specific BTK antibodies, one conjugated with Eu^3+-Cryptate FRET donor and one conjugated with d2 FRET acceptor. Assay controls include wells containing cell lysate with only the Eu^3+-Cryptate FRET donor antibody and wells containing both HTRF antibodies and lysis buffer without cells or control lysate provided by Cisbio. HTRF ratio was calculated as (acceptor signal at 665 nm/donor signal at 620 nm)×10^4. Background HTRF levels were determined from the control well containing the donor, but no acceptor, antibody. Background HTRF levels were subtracted from all samples. Readouts were reported as HTRF levels relative to HTRF levels of DMSO-treated cells. Four-parameter non-linear regressions were performed in GraphPad Prism 7.02 to obtain DC50 values.
# BTK Degradation (Total BTK HTRF) at Four Hours in TMD8 Cells Expressing BTK-C481S
# This example evaluates the potency of CTM in degrading […]. The BTK binding moieties utilized in CTMs bind to the BTK active site. This example evaluates whether the active site mutation C481S affects CTM-induced degradation of BTK.
# [2] = PK data for BTK CTMs (in vivo plasma concentrations); settings: for Vd: read-out: Volume of Distribution
# Excerpt: The present example evaluates in vivo plasma concentrations of BTK CTMs to develop PK-PD-efficacy relationship and predict human exposure.
# TMD8 cells = experiment: Cell viability assay (CellTiter-Glo), TMD8 cells; settings: for EC50: Homo sapiens, TMD8, 72 h; for EMAX (% viable cells): TMD8 cells, treatment time 72 h
# BTK [3] = target: T1, BTK (Mus musculus, UniProt P35991); experiment: In vivo degradation of BTK in mouse PD experiments with oral dosing
# T1 construct: from tissue; host or cells: mouse blood B cells / splenocytes (CD-1 or BALB/c)
# Procedure, shortened: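 CD-1 or BALB/c mice dosed by oral gavage, screens at 90 mg/kg for 6 h, later at lower doses/longer times. Blood or splenocyte BTK measured by intracellular flow cytometry (or HTRF); % degradation from B-cell minus T-cell BTK geometric MFI, relative to vehicle.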
# [4] = test system: B cell receptor (BCR) signaling; experiment: B cell activation assay (flow cytometry), mouse B cells; format: cell-based; settings: treatment 4 h, IgM stimulation 18 h
# Experimental: Compound was present throughout the stimulation. Cells were stained with Live/Dead dye (Fisher L34976) and then fluorophore-conjugated antibodies against CD20 (Biolegend 302330), CD3 (BD Pharmingen 557705), CD86 (Biolegend 305416) and CD69 (Biolegend 310906). Stained cells were fixed in PFA and run on an Attune N×T Acoustic Focusing Flow Cytometer (Thermo-Fisher A29004), and data was analyzed using FlowJo (v10.5.3) and GraphPad Prism (v7.00) software. Single live lymphocytes were gated for B cells (CD20+CD3−) and T cells (CD3+CD20−), and the geometric mean fluorescence intensity (MFI) of CD86 and CD69 was calculated for each population. The MFI of the unstimulated sample was used to quantify baseline activation.
# This example evaluates whether CTM treatment affects B cell receptor (BCR) signaling. BTK is activated downstream of the B cell receptor and leads to upregulation of activation markers CD86 and CD69 on the surface of B cells.
# primary human T cells [5] = experiment: T cell activation assay, IL-2 secretion (ELISA); format: cell-based
# Procedure, shortened: (§2)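 Primary human T cells stimulated via TCR with anti-CD3/anti-CD28 in the presence of test compound. IL-2 secretion measured by ELISA; surface CD25 and CD69 by flow cytometry. Values are fold-change versus anti-CD3/anti-CD28 stimulation without compound.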
# primary human T cells [6] = experiment: T cell activation assay, CD25 and CD69 staining (flow cytometry); format: cell-based; settings: fold-change of response relative to baseline
# Procedure, shortened: as §2
# [7] = oral dose 3 mg/kg, 24 h, blood, flow cytometry
# [8] = Rat Sprague-Dawley, 10 mg/kg PO
# [9] = oral dose 3 mg/kg, 6 h, blood, flow cytometry
BTK Remaining (% relative to vehicle) (BTK [1]),DC50 (BTK C481S),"AUC ([2]; Mouse Balb/c, 1 mg/kg IV)","clearance ([2]; Mouse Balb/c, 1 mg/kg IV)","Vd ([2]; Mouse Balb/c, 1 mg/kg IV)","AUC ([2]; Mouse Balb/c, 30 mg/kg PO)","bioavailability ([2]; Mouse Balb/c, 30 mg/kg PO)",% BTK Remaining (BTK [3]; [7]),EC50 ([4]; read-out: CD69 EC50),EC50 ([4]; read-out: CD86 EC50),% BTK Remaining (BTK [3]; [9]),SMILES,EC50 (TMD8 C481S cells),EMAX (% viable cells) (TMD8 C481S cells),Tumor Growth Inhibition (relative to vehicle) (TMD8 tumor cells),EC50 (TMD8 cells),EMAX (% viable cells) (TMD8 cells),other results
27%,5.8 nM,8.64 µM·h,2.4 mL/min/kg,0.48 L/kg,74.3 µM·h,29%,55%,–,–,–,CN1CCN([C@@H]2CCCN(c3cnc(C(N)=O)c(Nc4ccc(N5CCC6(CC5)CCN(c5ccc7c(c5)C(=O)N(C5CCC(=O)NC5=O)C7=O)CC6)cc4)n3)C2)C1=O (stereo partly shown) [Compound 55],16.8 nM,19%,17%,2.4 nM,15%,"% BTK Remaining (BTK [3]; oral dose 0.3 mg/kg, 24 h, blood, flow cytometry): 83%; % BTK Remaining (BTK [3]; oral dose 0.3 mg/kg, 24 h, splenocytes, flow cytometry): 114%; % BTK Remaining (BTK [3]; oral dose 1 mg/kg, 6 h, splenocytes, HTRF, 1 mg/kg): 80% and 66%; % BTK Remaining (BTK [3]; oral dose 3 mg/kg, 6 h, splenocytes, HTRF): 18%; % BTK Remaining (BTK [3]; oral dose 3 mg/kg, 24 h, splenocytes, flow cytometry): 72%; % BTK Remaining (BTK [3]; oral dose 10 mg/kg, 24 h, blood, flow cytometry): 47%; % BTK Remaining (BTK [3]; oral dose 10 mg/kg, 24 h, splenocytes, flow cytometry): 45%; % BTK Remaining (BTK [3]; oral dose 30 mg/kg, 24 h, blood, flow cytometry): 39%; % BTK Remaining (BTK [3]; oral dose 30 mg/kg, 24 h, splenocytes, flow cytometry): 36%; % BTK Remaining (BTK [3]; oral dose 90 mg/kg, 24 h, blood, flow cytometry): 23%; % BTK Remaining (BTK [3]; oral dose 90 mg/kg, 24 h, splenocytes, flow cytometry): 48%"
16%,2.7 nM,1.77 µM·h,12 mL/min/kg,1.2 L/kg,1.79 µM·h,5%,51%,0.1 nM,0.2 nM,26%,CN1CCN([C@@H]2CCCN(c3cnc(C(N)=O)c(Nc4ccc(C5CN(C6CCN(c7ccc8c(c7)C(=O)N(C7CCC(=O)NC7=O)C8=O)CC6)C5)cc4)n3)C2)C1=O (stereo partly shown) [Compound 37],51.7 nM,16%,41%,21.1 nM,10%,"IL-2 Secretion Anti-CD3/Anti-CD28 Stimulation (primary human T cells [5]; 1.4 nM, fold-change of response relative to baseline): 1.16; IL-2 Secretion Anti-CD3/Anti-CD28 Stimulation (primary human T cells [5]; 37 nM, fold-change of response relative to baseline): 2.06; IL-2 Secretion Anti-CD3/Anti-CD28 Stimulation (primary human T cells [5]; 333 nM, fold-change of response relative to baseline (stimulation without compound)): 1.64; AUC ([2]; Rat Sprague-Dawley, 1 mg/kg IV): 0.59 µM·h; clearance ([2]; Rat Sprague-Dawley, 1 mg/kg IV): 36.3 mL/min/kg; Vd ([2]; Rat Sprague-Dawley, 1 mg/kg IV): 4.6 L/kg; AUC [2, 8]: 0.027 µM·h; bioavailability [2, 8]: 1%; CD25 Staining Anti-CD3/Anti-CD28 Stimulation (primary human T cells [6]; 1.4 nM): 1.11; CD69 Staining Anti-CD3/Anti-CD28 Stimulation (primary human T cells [6]; 1.4 nM): 1.08; CD25 Staining Anti-CD3/Anti-CD28 Stimulation (primary human T cells [6]; 37 nM): 0.79; CD69 Staining Anti-CD3/Anti-CD28 Stimulation (primary human T cells [6]; 37 nM): 0.77; CD25 Staining Anti-CD3/Anti-CD28 Stimulation (primary human T cells [6]; 333 nM): 0.43; CD69 Staining Anti-CD3/Anti-CD28 Stimulation (primary human T cells [6]; 333 nM): 0.45"
22%,2.7 nM,0.29 µM·h,68.3 mL/min/kg,4 L/kg,0.81 µM·h,9%,63%,0.08 nM,0.1 nM,48%,CN1CCN([C@H]2CCCN(c3cnc(C(N)=O)c(Nc4cnn(C5CCN(CC6CCN(c7ccc8c(c7)C(=O)N(C7CCC(=O)NC7=O)C8=O)CC6)CC5)c4)n3)C2)C1=O (stereo partly shown) [Compound 83],4.32 nM,52%,39%,1.66 nM,38%,–
